Several values for one entry are separate records, joined by “and”; a condition that tells them apart may be missing. Identical values can stand only once.
Key:
HIV-1/188-Leu = assay: Inhibition of HIV-1 induced syncytium formation in CEM cells, RT mutant 188-Leu; format: cell-based; details: Human immunodeficiency virus 1, CCRF-CEM, 96 h
Text: (§1) The selection and characterization of the HIV-1 RT mutant strains were done as follows: HIV-1/100-Ile ("100-Ile") was selected for resistance against TIBO R82150 as described in Balzarini et al, Virology 192: 246-253 (1993); HIV-1/103-Asn ("103-Asn") was selected for resistance against TIBO R82913 as described in Balzarini et al, Virology 192: 246-253 (1993); HIV-1/106-Ala ("106-Ala") was selected for resistance against nevirapine as described in Balzarini et al, J. Virol. 67: 5353-5359 (1993); HIV-1/Lys-138 ("ys-138") was selected for resistance against TSAO-m^3 T as described in Balzarini et al, Virology 192: 246-253 (1993) and Balzarini et al, Proc. Nat. Acad. Sci. USA 90: 6952-6956 (1993); HIV-1/181-Cys ("181-Cys") was selected for resistance against pyridinone L-697,661 as described in Balzarini et al, Virology 192: 246-253 (1993); and HIV-1/188-His ("188-His") was selected for resistance against HEPT as described in Balzarini et al, Mol. Pharmocol. 44: 694-701 (1993). 188-His was then further converted to HIV-1/188-Leu("188-Leu") upon further passage in cell culture in the absence of the HEPT. HIV-1/101-Glu ("101-Glu") and HIV-1/190-Glu ("190-Glu") were selected for resistance against the thiocarboxanilide derivative designated as UC38 as described in Balzarini et al, Antiviral Research 27: 219-236 (1995). HIV-1/184-Ile ("184-Ile") was selected for resistance against the combination of 3TC and TSAO-m^3 T as described in Balzarini et al, Molecular Pharm. 49: 882-890 (1996). HIV-1/184-Val ("184-Val") was selected for resistance against 3TC as described in Balzarini et al, Molecular Pharm. 49: 882-890 (1996).
(§2) CEM cells were suspended at ≈300,000 cells per ml of culture medium and infected with approximately 100 CCID50 (CCID50 being the 50% cell culture infective dose) of HIV-1(IIIB) (designated as "WT" in Table 3) or one of the HIV-1 RT mutant strains described above. Then 100 μl of the infected cell suspensions was added to 200 μl microtiter plate wells containing 100 μl of appropriate serial (5-fold) dilutions of the test compounds. The inhibitiory effect of the test compounds on HIV-1 induced syncytium formation in CEM cells was examined microscopically on day 4 post infection. The 50% effective concentration (EC50) was defined as the test compound concentration that inhibits syncytium formation in the HIV-1-infected cell cultures by 50%.

HIV-1/100-Ile = assay: Inhibition of HIV-1 induced syncytium formation in CEM cells, RT mutant 100-Ile; format: cell-based; details: Human immunodeficiency virus 1, CCRF-CEM, 96 h
Text: as §1, §2

HIV-1/181-Cys = assay: Inhibition of HIV-1 induced syncytium formation in CEM cells, RT mutant 181-Cys; format: cell-based; details: Human immunodeficiency virus 1, CCRF-CEM, 96 h
Text: as §1, §2

HIV-1/101-Glu = assay: Inhibition of HIV-1 induced syncytium formation in CEM cells, RT mutant 101-Glu; format: cell-based; details: Human immunodeficiency virus 1, CCRF-CEM, 96 h
Text: as §1, §2

HIV-1/184-Val = assay: Inhibition of HIV-1 induced syncytium formation in CEM cells, RT mutant 184-Val; format: cell-based; details: Human immunodeficiency virus 1, CCRF-CEM, 96 h
Text: as §1, §2

HIV-1/184-Ile = assay: Inhibition of HIV-1 induced syncytium formation in CEM cells, RT mutant 184-Ile; format: cell-based; details: Human immunodeficiency virus 1, CCRF-CEM, 96 h
Text: as §1, §2

HIV-1/Lys-138 = assay: Inhibition of HIV-1 induced syncytium formation in CEM cells, RT mutant 138-Lys; format: cell-based; details: Human immunodeficiency virus 1, CCRF-CEM, 96 h
Text: as §1, §2

HIV-1/190-Glu = assay: Inhibition of HIV-1 induced syncytium formation in CEM cells, RT mutant 190-Glu; format: cell-based; details: Human immunodeficiency virus 1, CCRF-CEM, 96 h
Text: as §1, §2

HIV-1/103-Asn = assay: Inhibition of HIV-1 induced syncytium formation in CEM cells, RT mutant 103-Asn; format: cell-based; details: Human immunodeficiency virus 1, CCRF-CEM, 96 h
Text: as §1, §2

HIV-1(IIIB) = assay: Inhibition of HIV-1 induced syncytium formation in CEM cells, HIV-1(IIIB) (WT); format: cell-based; details: day 4 post infection
Text: Cells and Viruses CEM cells were obtained from the […] (Rockville, Md.). HIV-l(IIIB) was originally obtained from the culture supernatant of persistently HIV-1-infected H9 cells and was provided by R. C. Gallo and M. Popovic (National Cancer Institute, National Institutes of Health, Bethesda, Md.).
as §2

HIV-1/106-Ala = assay: Inhibition of HIV-1 induced syncytium formation in CEM cells, RT mutant 106-Ala; format: cell-based; details: Human immunodeficiency virus 1, CCRF-CEM, 96 h
Text: as §1, §2

HIV-1/188-His = assay: Inhibition of HIV-1 induced syncytium formation in CEM cells, RT mutant 188-His; format: cell-based; details: Human immunodeficiency virus 1, CCRF-CEM, 96 h
Text: as §1, §2

[1] = tested on: HIV-1 strains containing the 100 Leu→Ile mutation in their RT; details: cited from earlier work
[2] = Human immunodeficiency virus 1, IIIB, CCRF-CEM, 96 h, Table 2, HIV-1(IIIB), repeat values
[3] = Human immunodeficiency virus 1, IIIB, CCRF-CEM, 96 h, Table 3, WT (HIV-1(IIIB))
[4] = Table 2, HIV-1(IIIB), repeat values

Compound	EC50 (HIV-1/188-Leu)	EC50 (HIV-1/100-Ile)	EC50 (HIV-1/181-Cys)	EC50 (HIV-1/101-Glu)	EC50 (HIV-1/184-Val)	EC50 (HIV-1/184-Ile)	EC50 (HIV-1/Lys-138)	EC50 (HIV-1/190-Glu)	EC50 (HIV-1/103-Asn)	EC50 (HIV-1(IIIB); [2])	EC50 (HIV-1(IIIB); [3])	EC50 (HIV-1(IIIB); [4])	EC50 (HIV-1/106-Ala)	EC50 (HIV-1/188-His)	resistance of the mutant strain to the compound [1]
Cc1occc1C(=Nc1ccc(Cl)c(C=NOC(C)(C)C)c1)SSc1ccccc1 [Compound 8]	> 2 µg/mL	0.65 µg/mL	0.23 µg/mL	0.2 µg/mL	0.018 µg/mL	0.03 µg/mL	0.18 µg/mL	> 2 µg/mL	≥ 2 µg/mL	156 nM	0.03 µg/mL	83.2 nM	0.7 µg/mL	≥ 2 µg/mL	–
CSSC(=Nc1ccc(Cl)c(C=NOC(C)(C)C)c1)c1ccoc1C [Compound 3]	1.35 µg/mL	0.47 µg/mL	0.1 µg/mL	0.14 µg/mL	0.12 µg/mL	0.03 µg/mL	0.1 µg/mL	> 2 µg/mL	1.33 µg/mL	128 nM	0.018 µg/mL	121 nM	0.18 µg/mL	0.8 µg/mL	–
CC(C)=CCOc1cc(N=C(SSc2ccccc2)c2ccoc2C)ccc1Cl [Compound 10]	> 2 µg/mL	1.5 µg/mL	≥ 2 µg/mL	0.2 µg/mL	0.053 µg/mL	0.09 µg/mL	0.23 µg/mL	> 2 µg/mL	≥ 2 µg/mL	–	0.05 µg/mL	–	0.5 µg/mL	≥ 2 µg/mL	–
CSSC(=Nc1ccc(Cl)c(OCC=C(C)C)c1)c1ccoc1C [Compound 4]	0.58 µg/mL	0.053 µg/mL	0.08 µg/mL	0.027 µg/mL	0.0015 µg/mL	0.0032 µg/mL	0.008 µg/mL	> 2 µg/mL	0.15 µg/mL	–	0.0018 µg/mL	–	0.018 µg/mL	0.85 µg/mL	–
CC(C)=CCN1Cc2cccc3[nH]c(=S)n(c23)C[C@@H]1C [Compound R82150]	–	–	–	–	–	–	–	–	–	–	–	–	–	–	resistant
CSSC(=Nc1ccc(Cl)c(OCC=C(C)C)c1)c1cc(C)oc1C [Compound 9, N-[4-chloro-3-[(3-methyl-2-butenyl)oxy]phenyl]-2,5-dimethyl-3-furancarbodithioperoxyimidic acid methyl ester]	≥ 2 µg/mL	≥ 2 µg/mL	0.7 µg/mL	0.28 µg/mL	0.009 µg/mL	0.05 µg/mL	0.09 µg/mL	> 2 µg/mL	≥ 2 µg/mL	65 nM	0.0097 µg/mL	66.9 nM	0.2 µg/mL	≥ 2 µg/mL	–
CSSC(=Nc1ccc(Cl)c(OCCC(C)C)c1)c1ccsc1C [Compound 1, N-[4-chloro-3-(3-methylbutoxy)-phenyl]-2-methyl-3-thiophenecarbodithioperoxyimidic acid methyl ester]	–	–	–	–	–	–	–	–	–	–	–	104 nM and 186 nM	–	–	–
